Legend:
B. subtilis 1579 = experiment: National Antimicrobial Resistance Monitoring System (NARMS) panel screening, MIC in […] 96-well plate; type: cell-based, Bacillus subtilis; design: Minimum Inhibitory Concentrations (MIC), 1579a / Minimum Inhibitory Concentrations (MIC), 1579b: unit not given here; conditions: for Minimum Inhibitory Concentrations (MIC), 1579a / MIC interpretation (susceptible/intermediate/resistant), 1579a: duplicate a; for Minimum Inhibitory Concentrations (MIC), 1579a / Minimum Inhibitory Concentrations (MIC), 1579b: Mueller-Hinton broth, 37° C., read at 18 hours; for Minimum Inhibitory Concentrations (MIC), 1579b / MIC interpretation (susceptible/intermediate/resistant), 1579b: duplicate b; for MIC interpretation (susceptible/intermediate/resistant), 1579a / MIC interpretation (susceptible/intermediate/resistant), 1579b: CLSI M45 Bacillus spp. or NARMS Enterococcus breakpoints
Experimental: Methods. […] A sterile swab was used to take a portion of the pellet and resuspended in sterile ddH2O tubes; a 0.5 McFarland standard was used to determine the optimal dilution. 15 microliters of the ddH2O was transferred into the 5 mL tubes of Mueller-Hinton broth and the mixture was vortexed and poured into a sterile boat. A p200 multi-channel pipette was used to transfer 50 microliters into each well of the […] 96-well microtiter plate (CMV3AGPF) plate (FIG. 3) and sealed. The plates were incubated at 37° C. overnight. The plates were removed at 18 hours and each well was given a result of either positive or negative depending on if there was any growth in the well.

[1] = tested on: Bovine Aortic Endothelial Cells (BAEC); experiment: Inflammatory marker gene expression in LPS stimulated bovine endothelial cells (qPCR); type: cell-based; design: Cox-2 gene expression: dose or concentration left out as unconfirmed; conditions: LPS stimulation, 6 hours, qPCR vs GAPDH
Experimental: To determine potential mode of action of PCA, in vitro studies were performed using Bovine Aortic Endothelial Cells (BAEC). Stress was induced in mammalian endothelial cells using a lipopolysaccharide (LPS) model, which causes an inflammatory response through inflammatory cytokine, NO and prostaglandin release. After 6 hours, cells were lysed and cellular RNA was recovered using Direct-zol RNA MiniPrep Plus kit (Zymo Research) following the manufacturer's instructions. RNA was converted to cDNA using the QuantiNova Reverse Transcription Kit (Qiagen). Gene expression was then quantified using the QuantiTect SYBR Green PCR kit with primers specific for inflammatory markers. Inducible nitric oxide expression was screened using primers iNOSF ([…], SEQ ID NO: 7) and iNOSR ([…], SEQ ID NO: 8), Cyclo-oxygenase 2 primers, COX2F ([…], SEQ ID NO: 9) and COX2R ([…], SEQ ID NO: 10), and Interleukin-6 primers IL6F ([…], SEQ ID NO: 11) and IL6R ([…], SEQ ID NO: 12) compared against the house keeping gene GAPDH, primers GAPDH-F ([…], SEQ ID NO: 13) and GAPDH-R ([…], SEQ ID NO: 14). Quantitative PCR reactions were set up in 20 μl volumes as per the manufacturer's recommendations (Qiagen). Thermocycler conditions started with a 15 min denaturation at 95° C. followed by 40 cycles of denaturation at 95° C. for 15 seconds, annealing at 60° C. for 30 seconds and extension at 60° C. for 30 seconds before a melt curve.

Molecule | Minimum Inhibitory Concentrations (MIC), 1579a (B. subtilis 1579) | Minimum Inhibitory Concentrations (MIC), 1579b (B. subtilis 1579) | MIC interpretation (susceptible/intermediate/resistant), 1579a (B. subtilis 1579) | MIC interpretation (susceptible/intermediate/resistant), 1579b (B. subtilis 1579) | IL-6 expression ([1]; 1 g/ml and 10 µg/ml PCA) | iNOS gene expression ([1]; 1 g/ml and 10 µg/ml PCA) | Cox-2 gene expression ([1]; PCA)
Quinupristin/dalfopristin | 4 | 32 |  |  |  |  | 
CN(C)c1cc(NC(=O)CNC(C)(C)C)c(O)c2c1C[C@H]1C[C@H]3[C@H](N(C)C)C(O)=C(C(N)=O)C(=O)[C@@]3(O)C(O)=C1C2=O [Tigercycline] |  |  | S | S |  |  | 
Penicillin | 1 | 0.5 | S | S |  |  | 
Gentamycin | 128 | 128 | S | S |  |  | 
O=C(O)c1ccc(O)c(O)c1 [PCA, protocatechuic acid] |  |  |  |  | dose dependently decreased | decreased | decreased
CN[C@H](CC(C)C)C(=O)N[C@H]1C(=O)N[C@@H](CC(N)=O)C(=O)N[C@H]2C(=O)N[C@H]3C(=O)N[C@H](C(=O)N[C@H](C(=O)O)c4cc(O)cc(O)c4-c4cc3ccc4O)[C@H](O)c3ccc(c(Cl)c3)Oc3cc2cc(c3O[C@@H]2O[C@H](CO)[C@@H](O)[C@H](O)[C@H]2O[C@H]2C[C@](C)(N)[C@H](O)[C@H](C)O2)Oc2ccc(cc2Cl)[C@H]1O [Vancomycin] |  |  | S | S |  |  | 
CCCCCCCCCC(=O)N[C@@H](Cc1c[nH]c2ccccc12)C(=O)N[C@H](CC(N)=O)C(=O)N[C@@H](CC(=O)O)C(=O)N[C@@H]1C(=O)NCC(=O)N[C@@H](CCCN)C(=O)N[C@@H](CC(=O)O)C(=O)N[C@H](C)C(=O)N[C@@H](CC(=O)O)C(=O)NCC(=O)N[C@H](CO)C(=O)N[C@@H]([C@H](C)CC(=O)O)C(=O)N[C@@H](CC(=O)c2ccccc2N)C(=O)O[C@@H]1C [Daptomycin] |  |  | S | S |  |  | 
